Several values for one entry are separate records, joined by “and”; a condition that tells them apart may be missing. Equal entries are not always repeated. Structures can show the parent of a compound that is named as a salt. Where two headings read alike, the source gives them in different places.
Experiments:
[1] = system: writhing in mice induced by the intraperitoneal injection of acetic acid; assay: mouse-writhing test (inhibition of writhing induced by intraperitoneal acetic acid); assay type: in vivo; conditions: for ED50: Mus musculus, read-out: Median inhibiting dose (I.D.50)
Text: In the Table, column 1 gives the name of the compund; column 2, the dosage in mg./kg. of mouse weight; column 3, the route of administration of the drug ("S.C." is subcutaneous and "or" is oral); and column 4, the percent inhibition found at the particular dose level. […] Median inhibiting doses (I.D.50) are also included in the Table.

rat tail jerk = rat tail jerk assay (increase in reaction time over control); assay type: in vivo
Text: The compounds of this invention are also active in the rat tail jerk assay, another standard pharmacologic test for analgesic activity of the opiate-type. Such activity is manifested as an increase in the reaction time of the animal in removing (jerking) its tail from a nearby heat stimulus (a resistance wire) after drug administration compared to control time (no drug administered). Table 2 which follows gives the increased reaction times over control times produced by the compounds of this invention when administered subcutaneously. In Tables 2 and 3, column 1 gives the name of the compound; column 2, the dose; column 3, time of observation after administration of the drug; column 4, the increase in reaction time above control in seconds; and column 5, the level of significance of the results ("p" value). […] All drugs were administered as aqueous solutions. More than one value for a given dose level indicates multiple determinations. The results are not averaged.

morphine = assay: modified rat tail jerk assay, antagonism of morphine; assay type: in vivo, rats; conditions: for minimal effective dose: Rattus norvegicus, morphine 5 mg./kg. subcutaneous
Procedure: The ability of the compounds of this invention to antagonize the action of morphine, an opiate, is shown by the following modification of the aforementioned rat tail jerk assay: The standard assay procedure is used with the exception that a 7 amps. current is used instead of a 6 amps. current in the hot wire to decrease the measurable agonist effects of the antagonist. The drugs under test are then administered to groups of rats at different dose levels at different times prior to test, with a 5 mg./kg. dose of morphine invariably being administered 10 minutes prior to test. Positive evidence of antagonism is a decreased reaction time over that to be expected from the morphine. […] Among the compounds of this invention, those in which R in Structure I is cyclopropylmethyl are the preferred antagonists, showing activity in the above test procedure. […] In a series of determinations, it was ascertained that the minimum subcutaneous dose necessary to reduce the analgesic effects of a 5 mg./kg. subcutaneous dose of morphine was in the range 2.5-5.0 mg./kg. and the minimum oral dose, 5-10 mg./kg.

toxicity (L.D.50) = assay type: in vivo, mice; conditions: compared with dl mixture; listed as d(+) isomer
[2] = system: morphine induced Straub tail; assay: blocking of morphine induced Straub tail in mice; assay type: in vivo; conditions: 50 mg./kg. subcutaneous, morphine 40 mg./kg. subcutaneous
Procedure: In this assay, a 40 mg./kg. dose of morphine was administered to mice 15 minutes prior to assay, and the test drug at various intervals before assay. Trans-dl-1 -cyclopropylmethyl-3a-(m-hydroxyphenyl)-1,2,3,3a,4,5,6,7,7a,8-decahydroisoquinoline maleate gave a 100 percent block of the Straubed tail effected by a subcutaneous injection of 40 mg./kg. of morphine when the test drug was given at a dose of 50 mg./kg. subcutaneously 15 minutes prior to assay, and 80 percent when given 30 minutes prior to assay. The l(-) isomer gave 100 percent blocking on the morphine-induced Straub tail at 50 and 20 mg./kg. doses 15 and 30 minutes before assay.

[3] = subcutaneous, 50 mg./kg., 15 min
[4] = subcutaneous, 50 mg./kg., 30 min
[5] = subcutaneous, 50 mg./kg., 120 min
[6] = subcutaneous, 100 mg./kg., 15 min

O=C(O)/C=C\C(=O)O.Oc1cccc([C@@]23CCCC[C@H]2CN(CC2CC2)CC3)c1 (stereo in doubt) [Trans-d(+)-1-cyclopropylmethyl-3a-(m-hydroxyphenyl)-1,2,3,3a] [Trans-d(+)-1-cyclopropylmethyl-3a-(m-hydroxyphenyl)-1,2,3,3a,4,5,6,7,7a,8-decahydroisoquinoline maleate]
% Inhibition ([1]; 5 mg./kg. S.C., reading at 0.25 hours): inact | % Inhibition ([1]; 50 mg./kg. S.C., reading at 0.25 hours): 44% | % Inhibition ([1]; 100 mg./kg. S.C., reading at 0.25 hours): 51% | Increase in Reaction Time Over Control (rat tail jerk; oral, 100 mg./kg., 30 min): 0 s | Increase in Reaction Time Over Control (rat tail jerk; oral, 100 mg./kg., 60 min): 0 s | Increase in Reaction Time Over Control (rat tail jerk; oral, 100 mg./kg., 120 min): .40 s | Increase in Reaction Time Over Control (rat tail jerk; oral, 150 mg./kg., 15 min): 0 s | Increase in Reaction Time Over Control (rat tail jerk; oral, 150 mg./kg., 30 min): 0 s | Increase in Reaction Time Over Control (rat tail jerk; oral, 150 mg./kg., 60 min): .35 s | Increase in Reaction Time Over Control (rat tail jerk; oral, 150 mg./kg., 120 min): .30 s | Increase in Reaction Time Over Control (rat tail jerk; oral, 150 mg./kg., 180 min): .30 s | lethality in the rat tail jerk assay (rat tail jerk; oral, 200 mg./kg.): lethal | Increase in Reaction Time Over Control (rat tail jerk; subcutaneous, 10 mg./kg., 15 min): 0 s | Increase in Reaction Time Over Control (rat tail jerk; [3]): .25 s | Increase in Reaction Time Over Control (rat tail jerk; [4]): 1.30 s | Increase in Reaction Time Over Control (rat tail jerk; subcutaneous, 50 mg./kg., 60 min): 2.25 s | Increase in Reaction Time Over Control (rat tail jerk; [5]): .10 s | Increase in Reaction Time Over Control (rat tail jerk; [6]): .50 s | Increase in Reaction Time Over Control (rat tail jerk; subcutaneous, 100 mg./kg., 30 min): 1.55 s | Increase in Reaction Time Over Control (rat tail jerk; subcutaneous, 100 mg./kg., 60 min): 3.50 s | Increase in Reaction Time Over Control (rat tail jerk; subcutaneous, 100 mg./kg., 120 min): 1.15 s | morphine antagonistic effects (morphine; 100 mg./kg. subcutaneous, 60 minutes before test): shows morphine antagonistic effects | toxicity relative to the dl mixture (toxicity (L.D.50)): about the same toxicity as the dl mixture

Oc1cccc([C@]23CCCC[C@@H]2CN(CC2CC2)CC3)c1 (stereo in doubt) [Trans-dl-1-cyclopropylmethyl-3a-(m-hydroxyphenyl)-1,2,3,3a,4,5,6,7,7a,8-decahydroisoquinoline maleate]
% Inhibition ([1]; 2 mg./kg. S.C., reading at 0.5 hours): 6% | % Inhibition ([1]; 5 mg./kg. S.C., reading at 0.5 hours): 66% | % Inhibition ([1]; 10 mg./kg. S.C., reading at 0.5 hours): 72% | % Inhibition ([1]; 20 mg./kg. S.C., reading at 0.5 hours): 99% | % Inhibition ([1]; 20 mg./kg. oral, reading at 0.5 hours): 46% | % Inhibition ([1]; 50 mg./kg. oral, reading at 0.5 hours): 56% | % Inhibition ([1]; 100 mg./kg. S.C., reading at 0.5 hours): 100% | % Inhibition ([1]; 100 mg./kg. oral, reading at 0.5 hours): 92% | ED50 ([1]; sc, S.C.): 2 to 5 mg/kg | ED50 ([1]; oral): 20 to 50 mg/kg | Increase in Reaction Time Over Control (rat tail jerk; oral, 5 mg./kg., 15 min): 0 s | Increase in Reaction Time Over Control (rat tail jerk; oral, 10 mg./kg., 15 min): .90 s | Increase in Reaction Time Over Control (rat tail jerk; oral, 15 mg./kg., 15 min): .95 s | Increase in Reaction Time Over Control (rat tail jerk; oral, 20 mg./kg., 30 min): 1.17 s | Increase in Reaction Time Over Control (rat tail jerk; oral, 20 mg./kg., 45 min): 1.33 s | Increase in Reaction Time Over Control (rat tail jerk; oral, 25 mg./kg., 15 min): 2.10 s | Increase in Reaction Time Over Control (rat tail jerk; oral, 25 mg./kg., 30 min): .30 s | Increase in Reaction Time Over Control (rat tail jerk; oral, 50 mg./kg., 10 min): 2.83 s and 2.73 s and 2.88 s | Increase in Reaction Time Over Control (rat tail jerk; oral, 50 mg./kg., 15 min): 4.25 s and 4.92 s and 5.08 s | Increase in Reaction Time Over Control (rat tail jerk; oral, 50 mg./kg., 60 min): 2.42 s | Increase in Reaction Time Over Control (rat tail jerk; oral, 50 mg./kg., 90 min): 1.38 s | Increase in Reaction Time Over Control (rat tail jerk; oral, 50 mg./kg., 120 min): 1.17 s | Increase in Reaction Time Over Control (rat tail jerk; oral, 100 mg./kg., 5 min): .55 s | Increase in Reaction Time Over Control (rat tail jerk; oral, 100 mg./kg., 10 min): 2.45 s | Increase in Reaction Time Over Control (rat tail jerk; oral, 100 mg./kg., 15 min): 4.85 s and 7.46 s and 4.50 s | Increase in Reaction Time Over Control (rat tail jerk; oral, 100 mg./kg., 15 min, 20 sec. cut off): 5.45 s | Increase in Reaction Time Over Control (rat tail jerk; oral, 100 mg./kg., 30 min): 3.45 s and 4.05 s and 6.79 s and 4.38 s | Increase in Reaction Time Over Control (rat tail jerk; oral, 100 mg./kg., 60 min): 2.05 s | Increase in Reaction Time Over Control (rat tail jerk; oral, 200 mg./kg., 15 min, 20 sec. cut off): 7.25 s and 7.13 s | Increase in Reaction Time Over Control (rat tail jerk; oral, 200 mg./kg., 30 min): 2.75 s and 1.42 s | Increase in Reaction Time Over Control (rat tail jerk; oral, 200 mg./kg., 45 min): 5.79 s | Increase in Reaction Time Over Control (rat tail jerk; oral, 300 mg./kg., 15 min): 7.75 s | Increase in Reaction Time Over Control (rat tail jerk; subcutaneous, 0.5 mg./kg., 15 min): .75 s | Increase in Reaction Time Over Control (rat tail jerk; subcutaneous, 1 mg./kg., 15 min): .50 s | Increase in Reaction Time Over Control (rat tail jerk; subcutaneous, 2 mg./kg., 15 min): 2.21 s | Increase in Reaction Time Over Control (rat tail jerk; subcutaneous, 3 mg./kg., 15 min): 2.04 s | Increase in Reaction Time Over Control (rat tail jerk; subcutaneous, 7 mg./kg., 15 min): 4.25 s | Increase in Reaction Time Over Control (rat tail jerk; subcutaneous, 20 mg./kg., 15 min): 5.17 s and 3.70 s | Increase in Reaction Time Over Control (rat tail jerk; subcutaneous, 25 mg./kg., 15 min): 4.40 s | Increase in Reaction Time Over Control (rat tail jerk; subcutaneous, 30 mg./kg., 15 min, 20 sec. cut off): 4.25 s | Increase in Reaction Time Over Control (rat tail jerk; subcutaneous, 40 mg./kg., 15 min): 3.90 s | Increase in Reaction Time Over Control (rat tail jerk; subcutaneous, 50 mg./kg., 5 min, 15 sec. cut off): 4.85 s | Increase in Reaction Time Over Control (rat tail jerk; subcutaneous, 50 mg./kg., 10 min, 15 sec. cut off): 4.95 s | Increase in Reaction Time Over Control (rat tail jerk; subcutaneous, 50 mg./kg., 10 min, 20 sec. cut off): 4.85 s | Increase in Reaction Time Over Control (rat tail jerk; [3]): 4.0 s and 5.98 s | Increase in Reaction Time Over Control (rat tail jerk; subcutaneous, 50 mg./kg., 15 min, 15 sec. cut off): 6.50 s | Increase in Reaction Time Over Control (rat tail jerk; subcutaneous, 50 mg./kg., 15 min, 20 sec. cut off): 6.08 s | Increase in Reaction Time Over Control (rat tail jerk; [4]): 5.75 s | Increase in Reaction Time Over Control (rat tail jerk; subcutaneous, 50 mg./kg., 30 min, 15 sec. cut off): 5.10 s | Increase in Reaction Time Over Control (rat tail jerk; subcutaneous, 50 mg./kg., 45 min): 3.00 s | Increase in Reaction Time Over Control (rat tail jerk; subcutaneous, 50 mg./kg., 90 min): 1.85 s | Increase in Reaction Time Over Control (rat tail jerk; [5]): 2.45 s | Increase in Reaction Time Over Control (rat tail jerk; subcutaneous, 50 mg./kg., 180 min): 1.80 s | Increase in Reaction Time Over Control (rat tail jerk; subcutaneous, 60 mg./kg., 15 min, 20 sec. cut off): 4.40 s | Increase in Reaction Time Over Control (rat tail jerk; [6]): 4.15 s | Increase in Reaction Time Over Control (rat tail jerk; subcutaneous, 200 mg./kg., 15 min): 5.65 s | blocking of the analgesic effect of morphine (morphine; 50 mg./kg. subcutaneous, 30 and 60 minutes prior, morphine 5 mg./kg.): very effectively blocked the analgesic effect of 5 mg./kg. of morphine | minimal effective dose (morphine; sc, subcutaneous, read-out: minimum subcutaneous dose necessary to reduce the analgesic effects of morphine): 2.5 to 5 mg/kg | minimal effective dose (morphine; oral, read-out: minimum oral dose necessary to reduce the analgesic effects of morphine): 5 to 10 mg/kg | antagonism of morphine (morphine; dose not stated): antagonizes the effects of morphine | block of the Straubed tail ([2]; 15 minutes prior): 100% | block of the Straubed tail ([2]; 30 minutes prior): 80%
